According to patent publication US7511074B2, “Tetrafluorobenzyl derivatives and pharmaceutical composition for preventing and treating acute and chronic neurodegenerative diseases in central nervous system containing the same” (AmKor Pharma, Inc., priority 2002, dated 2009):

What was measured:
[1] = test system: ALS mice (G93A human SOD1 mutation); test: Neuronal death in spinal cord of ALS transgenic mice (SOD1-G93A); type: in vivo, mouse
Protocol: Bright field photomicrographs of spinal cord sections stained with eosin from amyotrophic lateral sclerosis (ALS) mice over expressing the mutant SOD1-G93A that received vehicle (A) or 2-Hydroxy-TTBA (B, 10 mg/kg/day through drinking water) for 8 weeks from the age of 2 months.
Degenerating neurons from FIG. 7a. were analyzed by counting viable neurons after staining with eosin in the dorsal and ventral horn of spinal cord from ALS mice treated with a vehicle (Control) or 2-Hydroxy-TTBA, mean ±S.E.M (n=5 animals for each condition). *, Significant difference from the vehicle control, p<0.05 using the independent t-test.
Transgenic mice with the G93A human SOD1 mutation (B6SJL-TgN(SOD1-G93A)1Gur), animal models of ALS (ALS mice), were obtained from Jackson Laboratories (ME, USA). 2-hydroxy-TTBA was administered to 2 month-old wild type and ALS transgenic mice through drinking water bottle (10 mg/kg per day) for 8 weeks. Animals were then euthanized and spinal cords processed for histological examination by staining with hematoxylin and eosin. Spinal motor neurons from ALS mice without being treated with 2-hydroxy-TTBA (control) underwent degeneration as evident by eosinophilic staining, which was reduced in ALS mice treated with 2-hydroxy-TTBA (FIG. 7a).
The number of degenerating neurons was analyzed by counting eosinophilic neurons in ventral horn (VH) and dorsal horn (DH).

C57/BL6 mice, MPTP = test: Dopaminergic neuronal death in substantia nigra after MPTP injection; type: in vivo, mouse; conditions: 25 or 50 mg/kg ip every 12 hr, MPTP 40 mg/kg s.c.
Protocol: (§1) Bright field photomicrographs showing dopaminergic neurons in the substantia nigra immunostained with anti-tyrosine hydroxylase (TH) antibody 3 d following sham control (A) or the single daily injection of 1-methyl-4-phenyl-1,2,3,6-tetrahydropyridine (MPTP, 40 mg/kg, SC) in C57/BL6 mice, alone (B) or with intraperitoneal injections (2 times per day) of 2-Hydroxy-TTBA (C, 25 mg/kg; D, 50 mg/kg) prior to MPTP administration.
Quantification of TH-positive dopaminergic neurons in the substantia nigral sections 3 d following the single daily injection of (MPTP, 40 mg/kg, SC), alone or with pretreatment with 2-Hydroxy-TTBA as described above. *, Significant difference from the control, p<0.05 using ANOVA and Student-Neuman-Keuls' test.
as §1, with “antibody […]” for “antibody 3”
C57/BL6 mice (male, 8 weeks) received the injections of 40 mg/kg MPTP (s.c.), alone or with 25 or 50 mg/kg 2-Hydroxy-TTBA (ip) every 12 hr per day beginning 30 min before MPTP injection. […]

[2] = test system: Mouse cortical cell cultures; test: Zinc neurotoxicity in mixed cortical cell cultures (LDH assay); type: cell-based; conditions: 100 μM ZnCl2 for 30 min, concurrent treatment; LDH 24 hr later
Protocol: Mouse cortical cell cultures (DIV 12-14) were exposed to […] for 30 min, alone or with inclusion of 3-300 μM 2-Hydroxy-TTBA. Neuronal death was analyzed 24 hr later by measuring levels of LDH released into the bathing medium, mean ±SEM (n=9-12 culture wells per condition), scaled to mean LDH efflux value 24 hr after sham wash (=0) and continuous exposure to 500 μM NMDA (=100).
For mixed neuron-glia culture, mouse cerebral cortices were removed from brains of the 14-16 day-old-fetal mice (E14-16), gently triturated and plated on 24 well plates (2×10^5 cells/plate) precoated with 100 μg/ml poly-D-lysine and 4 μg/ml laminine. Cultures were maintained at 37° C. in a humidified 5% CO2 atmosphere. […]
After 7-8 days in vitro (DIV 7-8), 10 μM cytosine arabinofuranoside (Ara-C) was included to halt overgrowth of glia. […] Overall neuronal cell injury was assessed by measuring amount of lactate dehydrogenase (LDH) released into the bathing medium 24 hr after neurotoxic insults as previously described [Koh and Choi, J Neurosci Methods 20:83-90, 1987].
To induce zinc (Zn^2+) neurotoxicity, mixed cortical cell cultures were exposed to 100 μM ZnCl2 for 30 min in a HEPES-buffered control salt solution (HCSS): (in mM) 120 NaCl, 5 KCl, 1.6 MgCl2, 2.3 CaCl2, 15 glucose, 20 HEPES and 10 NaOH, alone or with 3-300 uM 2-Hydroxy-TTBA. […] Neuronal cell death was analyzed 24 hr later by LDH assay. […]

SMILES: O=C(O)c1cc(NCc2c(F)c(F)c(C(F)(F)F)c(F)c2F)ccc1O [2-Hydroxy-TTBA, 2-hydroxy-5-(2,3,5,6-tetrafluoro-4-trifluoromethylbenzylamino)benzoic acid]
- degeneration of spinal motor neurons (eosinophilic staining) ([1]; 10 mg/kg per day in drinking water for 8 weeks from 2 months of age): reduced
- degeneration of dorsal and ventral horn neurons (count of eosinophilic neurons) ([1]; 10 mg/kg per day in drinking water for 8 weeks, n=5 animals): significantly prevented degeneration
- degeneration of dopaminergic neurons in substantia nigra, 3 d (C57/BL6 mice, MPTP; 3 d): significantly attenuated degeneration
- protective effects on dopaminergic neurons, 7 d (C57/BL6 mice, MPTP; 7 d): protective effects of 2-Hydroxy-TTBA are also observed
- doses at which zinc-induced neuronal death was prevented [2]: 10 to 300 µM
